SMILES strings stand for the structures. Like-named read-outs stand apart in the source and are kept apart here.

Data on 6 compounds can be found in PMC7501730, “Discovery of novel small molecule inhibitors of S100P with in vitro anti-metastatic effects on pancreatic cancer cells” (European Journal of Medicinal Chemistry, 2020).

The target in one data set is T1, S100P-RAGE interaction (Homo sapiens, UniProt P25815).
T1 construct: His tag (N); made in house; host or cells: Escherichia coli BL21*
T1 sequence (P25815 1-95): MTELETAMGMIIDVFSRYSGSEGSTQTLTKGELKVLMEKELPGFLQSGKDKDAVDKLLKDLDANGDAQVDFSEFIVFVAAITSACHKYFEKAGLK
Put plainly: ELISA of S100P-RAGE binding inhibition. The following applies: for ELISA inhibition: concentration with significant inhibition of S100P-RAGE binding, asterisks = significance by one-way ANOVA; for IC50: read-out: Estimated IC50. As to the method:
The purchased computational screening hits were subjected to initial biological testing for inhibition of S100P-RAGE binding (ELISA), with cromolyn as positive control, using an adaptation of the reported ELISA for S100 family members.
Fig. 2 Effects of compounds 1–14 on S100P binding to RAGE. Human S100P (2 μM) coated wells were incubated with increasing concentrations of the compound tested, in triplicate, and exposed to human RAGE-Fc (100 nM) followed by goat anti-human secondary antibody to detect RAGE bound S100P. Data are compared to S100P/RAGE binding with no inhibitor (DMSO, 100%) and are presented as mean ± SEM; data is significant by one way ANOVA, where ∗ = p < 0.05, ∗∗ = p < 0.01 and ∗∗∗ = p < 0.001; n = 9 from 3 plates.
To generate human S100P recombinant protein, a pQE-30 ([…]) plasmid encoding S100P with N-terminal histidine tags (gifted by Dr Igor Barsukov, Liverpool University, UK), was transformed into BL21∗ competent Escherichia coli cells. Recombinant protein was purified using a HisTrap Nickel-nitrilotriacetic acid (Ni-NTA) agarose column (GE Healthcare, UK).
Purified recombinant S100P (2μM/well) in phosphate buffer (PBS; 137 mM NaCl, 2.7 mM KCl, 10 mM Na2HPO4, 1.8 mM KH2PO4, pH 7.4; supplemented with 1 mM CaCl2, 10 μM ZnCl2, and 0.5 mM MgCl2) was used for coating a 96 well plate (NunclonDelta, Fisher), and incubated overnight at 37 °C.
Following washing, S100P non-specific binding sites were blocked with 1% bovine serum albumin (BSA; Fisher, UK) in PBS for 2 h at 37 °C. Following three washes, S100P was incubated with increasing concentrations of compounds, in parallel to cromolyn and DMSO treated wells, all in triplicate. Then 30 nM recombinant human receptor for advanced glycation end products (rh/RAGE-Fc; R&D Systems) was added and incubated for 1 h at 37 °C. Controls included a negative control (S100P protein, no RAGE-Fc), a positive control (S100P protein plus RAGE), and vehicle control (0.001% DMSO in PBS) were included in each plate. After three washes in PBS, all wells were exposed to goat anti-human HRP conjugate (1:1000; Millipore) for 1 h at 37 °C in order to detect bound receptors. Subsequent to washes, wells were incubated for 20 min in the dark with 3,3′,5,5′-tetramethylbenzidene (TMB) substrate (Sigma, UK). Plates were read at 450 nm using a Multiskan Ascent spectrophotometer (Fisher Scientific, UK). All sample readings were normalized to the positive control (S100P plus RAGE-Fc). Statistical analysis was performed and graphs plotted using the GraphPad Prism software in the following way: One Way ANOVA was used to compare the effects of concentration of each compound to the effects of vehicle control (DMSO), and p values of <0.05 were considered statistically significant. A post hoc analysis was conducted using Dunnetts multiple comparisons test; results are indicated by ∗ = p < 0.05; ∗∗ = p < 0.01 and ∗∗∗ = p < 0.001.

The test system of another data set is Panc-1 cells. The data set can be described thus: LDH release from cells in upper Transwell chamber, Panc-1. Conditions: Panc-1, 48 h; hit compounds 10 μM, cromolyn 10, 100 and 300 μM. It counts as cell-based, Human. The protocol: (§1) In order to exclude any possibility that reduced cell invasiveness was due to cell death during the time period of the assay, the viability of cells in the upper Transwell® chamber was assessed via measurement of LDH release. […] (Supplementary Data).
(§2) Figure S2: No significant difference in cell toxicity, measured by LDH release, is observed between treated and untreated cells in the Transwell® invasion assay. Cytotoxicity was measured using the medium recovered from the upper chamber of each Transwell ® chamber which contained BxPC-3 (A) and Panc-1 (B) cells treated with cromolyn (10 µM, 100 µM, and 300 µM) and hit compounds (10 µM) and incubated for 48 h. Data are the mean ± SEM of three independent experiments (n=3). One-way ANOVA assessed significance, and Dunnett post-hoc test is denoted by ns=P>0.05 in comparison to untreated control.
For orientation: LDH in the medium is a marker of cell lysis.

The test system of data set [1] is BxPC-3 cells (S100P-expressing). The data set can be described thus: LDH release cytotoxicity assay, BxPC-3. It counts as cell-based, Human. The following applies: BxPC-3, 10 μM, over three days incubation, compared to vehicle control.
Procedure: Metabolic activity and cytotoxicity/cytolysis were measured with the MTS (CellTiter® 96 AQueous One Solution assay, Promega) and LDH release (CytoTox-ONE™ Homogeneous Membrane Integrity assay, Promega) assays respectively, in S100P-expressing (BxPC-3) and S100P-negative (Panc-1) cell lines, at a compound concentration of 10 μM. Cromolyn was used as a positive control.
1 × 10^5 Panc-1 cells and 1x10^5 BxPC-3 cells were plated and allowed to adhere for 24 h; the cells were treated with cromolyn or the hit compounds for up to 3 days. MTS (CellTiter® 96 AQueous One Solution assay, Promega) and LDH release (CytoTox-ONE™ Homogeneous Membrane Integrity assay, Promega) assays were carried out every 24 h for a total of 3 days. MTS data was calculated in the following manner: OD for background absorbance was subtracted and all samples normalized to untreated cells in order to ascertain whether any compound-dependent effect occurred.
(§3) Since formazan formation is proportional to LDH release, data was calculated by subtracting the OD background and plotting the mean ± SEM.
10^5 BxPC3 cells were treated with 10 µM hit compounds for 24 hours, and the effect on LDH staining for each time point measured by fluorescence microplate reader.
Data set [2] concerns BxPC-3 cells (S100P-positive). The data set can be described thus: Transwell Matrigel invasion assay, BxPC-3. Conditions: 10% FBS chemoattractant. It counts as cell-based, Human.
Procedure: The effect of the S100P-binding hit compounds to inhibit cell invasion in S100P-expressing cells in vitro was measured via a Transwell invasion assay. In this assay, cells invade through the matrigel on upper Transwell chamber towards a lower chamber containing a chemoattractant.
Data is shown as mean ± SEM number of invasive cells as counted under the microscope (x100).
The Transwell invasion assay (Fisher Scientific, Germany) was performed using chambers with polyethylene terephthalate (PET) membrane filters with 8 μm pore size coated on the upper side with Matrigel (a layer of extracellular matrix (ECM) to mimic the process of the ECM invasion.
BxPC-3 and Panc-1 cells were cultured as described above for 24 h, were re-suspended and diluted in the appropriate serum-free medium to a seeding density of 2 × 10^5 cells/mL and added to the upper chambers of the Transwell invasion chambers. DMEM and RPMI-1640 media were supplemented with 10% fetal bovine serum (FBS; Sigma, USA) to act as a chemoattractant. […]
Cells that had passed through the matrigel coated membrane to the lower surface were fixed and stained with Diff-Quik stain kit (Fisher, USA) according to the manufacturer’s instructions. […] The number of invaded cells were counted in five different fields of view using the ImageJ 1.50i software (windows version of NIH Image, http://rsb.info.nih.gov/nih-image/). […]
For the next data set, the system named is BxPC-3 cells. Put plainly: LDH release from cells in upper Transwell chamber, BxPC-3. It counts as cell-based, Human. The following applies: BxPC-3, 48 h; hit compounds 10 μM, cromolyn 10, 100 and 300 μM. As to the method: as §1, §2
Data set [3] deals with Panc-1 cells (S100P-negative). Put plainly: LDH release cytotoxicity assay, Panc-1. It counts as cell-based, Human. The following applies: Panc-1, 10 μM, over three days incubation, compared to vehicle control.
Procedure: Metabolic activity and cytotoxicity/cytolysis were measured with the MTS (CellTiter® 96 AQueous One Solution assay, Promega) and LDH release (CytoTox-ONE™ Homogeneous Membrane Integrity assay, Promega) assays respectively, in S100P-expressing (BxPC-3) and S100P-negative (Panc-1) cell lines, at a compound concentration of 10 μM. Cromolyn was used as a positive control. […]
1 × 10^5 Panc-1 cells and 1x10^5 BxPC-3 cells were plated and allowed to adhere for 24 h; the cells were treated with cromolyn or the hit compounds for up to 3 days. […] MTS data was calculated in the following manner: OD for background absorbance was subtracted and all samples normalized to untreated cells in order to ascertain whether any compound-dependent effect occurred.
as §3
10^5 Panc- 1 cells were treated with 10 µM hit compounds for 24 hours, and the effect on LDH staining for each time point measured by fluorescence microplate reader.
Setting [4] is: Table 2, ELISA, analog series of hit 4.

One may read the melting point as the temperature of the solid-liquid transition. With `O=C1C2C3c4ccccc4C([N+](=O)[O-])(c4ccccc43)C2C(=O)N1c1cccc(F)c1` (stereo not drawn) [Compound 4b, 13-(3-fluorophenyl)-9-nitro-9,10-dihydro-9,10-[3,4]epipyrroloanthracene-12,14-dione], the melting point lay in the range of 241 to 243 °C. Further, the “concentration with significant inhibition of S100P-RAGE binding” value on S100P-RAGE interaction (ELISA) is listed as ≤ 100 nM. The ELISA inhibition on S100P-RAGE interaction (Table 2) turned out to be 100 nM∗.

A word on the IC50: it is the concentration that gives 50% inhibition. For `O=C(O)c1ccc(N2C(=O)C3C4c5ccccc5C([N+](=O)[O-])(c5ccccc54)C3C2=O)cc1` (stereo not drawn) [Compound 4f, 4-(9-Nitro-12,14-dioxo-9,10-dihydro-9,10-[3,4]epipyrroloanthracen-13-yl)benzoic acid], the melting point fell in the range of 344 to 345 °C. Moreover, the “concentration with significant inhibition of S100P-RAGE binding” value on S100P-RAGE interaction (ELISA) is reported as ≤ 100 nM. For the same compound, the half-inhibitory concentration (IC50) on S100P-RAGE interaction (setting [4]) is 0.482 nM. Also, the ELISA inhibition on S100P-RAGE interaction (Table 2) is <10 nM∗∗∗.

On to `O=C(O)c1cc(=O)c2c(OCC(O)COc3cccc4oc(C(=O)O)cc(=O)c34)cccc2o1` [cromolyn], for which the “LDH release of cells in upper Transwell chamber” value with Panc-1 cells and in the data set on BxPC-3 cells was “no significant increase in LDH release” in each case. Moreover, the “cytotoxicity (LDH release)” value in data set [1] and in data set [3] was “neither the hit compounds nor cromolyn exhibited cytotoxicity” each time. The “inhibition of cell invasion to the lower chamber” value in data set [2] (BxPC-3, 10 μM, 48 h) was “did not exhibit a statistically significant effect”. For the same compound, in data set [2] (BxPC-3, 48 h), the “concentration with significant inhibition of invasion” value is ≥ 100 µM. The “concentration with significant inhibition of S100P-RAGE binding” value on S100P-RAGE interaction (ELISA) is listed as ≥ 100 nM. Further, the “maximum inhibition of S100P-RAGE binding” value on S100P-RAGE interaction (ELISA) turned out to be 56%.

The compound `O=C(O)c1cccc(N2C(=O)C3C4c5ccccc5C([N+](=O)[O-])(c5ccccc54)C3C2=O)c1` (stereo not drawn) [Compound 4, 3-(9-Nitro-12,14-dioxo-9,10-dihydro-9,10-[3,4]epipyrroloanthracen-13-yl)benzoic acid] returned a melting point of 271 to 272 °C. Besides, the “concentration with significant inhibition of S100P-RAGE binding” value at S100P-RAGE interaction (ELISA) is listed as ≥ 10 nM. The IC50 at S100P-RAGE interaction (Table 1, ELISA, human S100P 2 μM coated wells, human RAGE-Fc) is 22.7 nM. The same compound returned an ELISA inhibition at S100P-RAGE interaction (Table 2) of 10 nM∗∗.

`O=C1C2C3c4ccccc4C(c4ccccc43)C2C(=O)N1c1ccc(F)cc1` (stereo not drawn) [Compound 4u, 13-(4-fluorophenyl)-9,10-dihydro-9,10-[3,4]epipyrroloanthracene-12,14-dione]: the melting point lay within 250 to 253 °C. In addition, the “concentration with significant inhibition of S100P-RAGE binding” value on S100P-RAGE interaction (ELISA) is recorded as ≤ 100 nM. Also, the IC50 at S100P-RAGE interaction (setting [4]) was 4.15 nM. On S100P-RAGE interaction (Table 2), the ELISA inhibition worked out at 10 nM∗.

Regarding `O=C1C2C3c4ccccc4C(c4ccccc43)C2C(=O)N1c1ccccc1` (stereo not drawn) [Compound 4r, 13-Phenyl-9,10-dihydro-9,10-[3,4]epipyrroloanthracene-12,14-dione], the melting point lay in the range of 211 to 215 °C. Also, at S100P-RAGE interaction (ELISA), the “concentration with significant inhibition of S100P-RAGE binding” value is given as ≤ 100 nM. Besides, the IC50 at S100P-RAGE interaction (setting [4]) was 0.796 nM. The same compound gave an ELISA inhibition at S100P-RAGE interaction (Table 2) of 10 nM∗.
